# Source: patent US10851096B2, “Aryl and heteroaryl amides for use as anti-proliferative, anti-thrombotic, and anti-viral agents” (Rutgers, The State University of New Jersey, priority 2016, dated 2020)
# Key:
# [1] = molecular target: T1, hAxl/IFN-γR1 (Homo sapiens, UniProt P30530); assay: hAxl/IFN-γR1 CHO reporter cell line assay, Gas6-induced activation (pSTAT1 immunoblot); type: cell-based; details: for apparent EC50, anti-Axl activity: Axl reporter system; for IC50: dose-response, FIG. 2A/2B, read-out: IC50, Axl-inhibitory activity on hAxl/IFN-γR1 reporter cell lines
# T1 construct: containing human Axl extracellular domains and transmembrane and intracellular domains of human IFN-γR1; human IFN-γR1 transmembrane and intracellular domains (fusion partner); expressed in transfected cells
# T1 sequence (P30530 26-451 limits assumed): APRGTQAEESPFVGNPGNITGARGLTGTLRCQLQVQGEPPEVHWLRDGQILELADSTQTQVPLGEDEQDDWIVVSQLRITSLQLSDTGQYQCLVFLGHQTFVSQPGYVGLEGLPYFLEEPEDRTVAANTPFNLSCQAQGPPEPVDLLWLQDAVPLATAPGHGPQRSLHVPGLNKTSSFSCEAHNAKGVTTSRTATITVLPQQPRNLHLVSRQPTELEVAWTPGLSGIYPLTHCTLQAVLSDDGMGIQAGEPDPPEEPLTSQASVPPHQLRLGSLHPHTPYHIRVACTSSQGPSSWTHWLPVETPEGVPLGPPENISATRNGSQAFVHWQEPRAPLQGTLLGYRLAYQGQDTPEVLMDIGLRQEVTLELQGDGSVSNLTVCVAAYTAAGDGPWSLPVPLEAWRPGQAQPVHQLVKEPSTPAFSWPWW
# Protocol: Stable HEK 293 cells secreting human Gas6 (clone 7.4.1) were allowed to achieve 70% confluence in a 10-cm plate. The complete medium with 10% FBS was then changed into serum free media in the presence of 10 µg/mL vitamin K1 (Phytonadione injectable emulsion from Hospira). After 72 hours, the Gas6 conditioned medium was collected, and validated for the presence of Gas6 and γ-carboxylation (by immunoblot) and activity of Gas6 (via activation of pSTAT1 in hAxl/γR1 cells).
# Stable hAxl/IFN-γR1 CHO reporter cell lines (containing human Axl extracellular domains and transmembrane and intracellular domains of human IFN-γR1) were serum starved for 5 hrs±small molecule inhibitors and then stimulated with human Gas6 conditioned media±small molecule inhibitors for 30 minutes. For H1299 human non-small cell lung carcinoma and MDA-MB-231 human breast adenocarcinoma cell lines, the cells were serum starved overnight±small molecule inhibitors and stimulated with human Gas6 conditioned media±small molecule inhibitors for 30 minutes. Whole cell lysates of hAxl/IFN-γR1, H1299 and MDA-MB-231 cells were prepared using HNTG buffer (20 mM HEPES, pH 7.5, 150 mM NaCl, 10% glycerol, 1% Triton X-100, 1 mM PMSF, 1 mM Na3VO4, 10 mM Na2MoO4, 1 mM EDTA, 10 mM NaF and 20 μg/mL aprotinin). The resulting lysates were resolved on SDS-PAGE gel and immunoblotted with respective antibodies.
# Immunoblot data were obtained within a linear range of exposure, and intensities were quantified by ImageJ. The levels of hAxl/IFN-γR1 cells lines activation were measured by pSTAT1 whereas the levels of H1299 and MDA-MB-231 cell lines activation were measured by pAxl signal intensities. Blots were normalized to intensities of respective β-actin or GAPDH protein loading controls. The levels of pSTAT1 or pAxl activation induced by Gas6±small molecule inhibitors were plotted as a fold of enhancement or reduction over intensities induced by Gas6 alone.
# [2] = test system: MDA-MB-231 cells; assay: Real-time migration assay (RTCA DP Xcelligence), MDA-MB-231; type: cell-based, human; details: Gas6-inducible MDA-MB-231 cells
# Protocol: (§1) H1299 and MDA-MB-231 cells lines were seeded in complete medium and allowed to attain ˜80% confluence and then serum starved overnight in medium containing 0.5% FBS. The cells were then detached by Accutase (Sigma), counted and resuspended in serum-free RPMI-1640 medium. In the lower chamber of the CIM plate, 1×RPMI-1640 containing 10% FBS was added as a chemoattractant. In the top chamber, 50 μl of 1×RPMI-1640 was added to all wells. Both chambers were assembled, loaded in the Xcelligence system, and run for 30 min for equilibration or background readings. One hundred microliters of each cell line suspended in 1×RPMI-1640 (40,000 cells/100 μl)±Gas6±small molecule inhibitors then were added in triplicates in upper chamber wells. Readings for changes in the cell index (CI) were taken every 10 min for 24 h and migration was shown as a change in cell index versus time.
# [3] = test system: H1299 cells; assay: Real-time migration assay (RTCA DP Xcelligence), H1299; type: cell-based, human; details: Gas6-inducible H1299 cells
# Protocol: as §1
# [4] = test system: normal (non-cancerous) cells; assay: Cytotoxicity assays using normal (non-cancerous) cells; type: cell-based
# [5] = test system: H1299 lung cancer xenograft; assay: Mouse xenograft study, human H1299 lung cancer; type: in vivo; details: for growth of tumor (tumor volume): 100 mg/kg IP
# Protocol: 500,000 H1299 cells in 100 μl of PBS were injected subcutaneously into the right flank of 4-6 week NOD/SCIDg mice. Once tumors were palpable, the mice were randomized into 3 groups, each group had 6 mice: control mice were treated with vehicle (DMSO) intraperitoneally (IP) and the treatment groups with compound 1I (day 1, day 2, day 3 and day 4) or with compound 1Q (day 1, day 2, day 3, day 4, day 7 and day 8) at a dose of 100 mg/kg IP. Similar studies were conducted on compound 1Q dosed at 300 mg/kg in mice. Tumor size and body weights were measured three times a week and the tumor volume calculated.
# Finally, based on the promising in vitro and cell culture experiments showing anti-Axl activity of certain compounds, the in vivo efficacies of compound 1I and compound 1Q using a murine SCID/human H1299 lung cancer xenograft model was investigated (FIG. 7A-E). As indicated, SCID mice were subcutaneously injected with 250,000 tumor cells in the hind flanks with human H1299 cells until palpable tumors were present. Subsequently, mice were injected every two days with vehicle, compound 1I or compound 1Q at a concentration of 100 mg/kg for up to 2 weeks. […] Taken together, these studies support the further development of TAM Ig1 inhibitors as anti-cancer therapeutics (FIGS. 7A-E).
# [6] = Venous thromboembolism (VTE) mouse model; type: in vivo; details: 200 mg/kg qd IP for three days
# [7] = Cancer associated VTE mouse model; type: in vivo; details: 200 mg/kg qd IP for three days
SMILES,remaining activity at 10 µM [1] [%],"apparent EC50, anti-Axl activity [1]",IC50 [1] [nM],"motility (real-time, cell index) [2]","motility (real-time, cell index) [3]",cellular toxicity [4],growth of tumor (tumor volume) [5],tumor growth (volume) ([5]; 300 mg/kg IP),reduction in thrombus size [6],reduction in thrombus size [7] [%]
Cc1noc(C)c1CSc1ccccc1C(=O)N1CCN(c2cccc(C(F)(F)F)c2)CC1 [1I],20,low micro-molar range,1150,suppressed motility,suppressed motility,no discernible cellular toxicity,significantly suppressed growth of tumor,,,
Cc1cc(CSc2ccccc2C(=O)NCCNc2ccc(C(F)(F)F)cc2[N+](=O)[O-])on1 [1Q],10,low micro-molar range,1250,suppressed motility,suppressed motility,no discernible cellular toxicity,significantly suppressed growth of tumor,suppress tumor growth,approximately 37.3%,45
